Source: PMC6136712, “Ex vivo drug sensitivity testing as a means for drug repurposing in esophageal adenocarcinoma” (PLoS ONE, 2018)

How the values were obtained:
Assay type in all cases: cell-based, human
EAC42 cells [1] = assay: FDA library drug sensitivity testing (CellTiter-Glo, 72 h)
Method in brief: (§1)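 1000 cells/well exposed 72 h at 37 °C to drugs in duplicate, top concentration 10μM over a 20,000-fold range; DMSO wells as negative controls. Viability by ATP bioluminescence (CellTiter-Glo). Curves scored with the modified drug sensitivity score (DSSmod/sDSSmod).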

EAC47 cells [2] = assay: as above
Method in brief: as §1

[3] = tested on: normal esophageal epithelium cell line EACN42; assay: FDA library drug sensitivity testing (CellTiter-Glo, 72 h), normal control cells; set-up: key to DSS: modified drug sensitivity score (DSSmod) from dose-response curve fit; conditions: EACN42 normal esophageal cells, 72 h; for EC50: cell viability (ATP), max test concentration 10μM; for DSS: drug sensitivity score
Method in brief: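 HPV E6-E7-immortalized normal human esophageal epithelial cells, 1000 per well, exposed 72 h at 37 °C to drugs in duplicate from 10μM top concentration across a 20,000-fold range. Viability by ATP bioluminescence; DMSO wells as negative control; curves scored with modified drug sensitivity score (DSSmod).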

EAC42 cells [4] = assay: Clonogenic survival assay
Experimental: (§2) Clonogenic assays were performed as described previously. […] Colony formation was evaluated 14 days after seeding. All experiments were performed in triplicates and two biological replicates. Statistical analyses were performed in GraphPad prism.

EAC47 cells [5] = assay: Clonogenic survival assay
Experimental: as §2

Flo-1 cells = assay: FDA library drug sensitivity testing (CellTiter-Glo, 72 h); conditions: Flo-1; sDSSmod = DSSmod (patient cells) - DSSmod (normal cells)
Excerpt: OE33, OE19 and SKGT2 human esophageal adenocarcinoma cell lines were obtained from the European Collection of Cell Culture ([…]). Flo1, EAC42 and EAC47 cells were established in the Capobianco Laboratory. EAC42 and EAC47 human esophageal adenocarcinoma cell lines are derived from patients undergoing surgery at the Miller School of Medicine, University of Miami. The Capobianco laboratory obtained written informed consent from all patients and approval from the Institutional Research Ethics Committee.
Drug sensitivity testing (DST) was performed as described previously. […] Individual drugs were dissolved in 100% DMSO and tested in duplicates starting at a maximal test concentration of 10μM then over a 20,000-fold concentration range to generate dose response curves. Wells with assay buffer containing DMSO served as negative controls. 1000 exponentially growing cells were seeded per well in 384-well micro-titer plates and incubated in the presence of compounds in a humidified environment at 37°C and 5% CO2. After 72 hours of treatment, cell viability was assessed by measuring ATP levels via bioluminescence (CellTiter-Glo, Promega) according to manufactures recommendations. Interpretation of curve parameters was performed according to the modified drug sensitivity scoring (DSSmod) function developed by Swords et al. As a final step, the selective DSSmod (sDSSmod) for each drug in each patient screen is calculated according to the formula sDSSmod = DSSmod (patient cells)—DSSmod (normal cells). Given in this way, the sDSSmod incorporated information on each drug’s potency, efficacy, effect range and therapeutic index, making it possible to prioritize compounds over multiple parameters using a single numerical metric. In addition, this methodology allows us to rank compounds by cancer-selective efficacy for each individual patient. […] All calculations and scoring routines are implemented in MatLab and additional curve fitting and statistical analyses are performed in GraphPad prism.

OE19 cells = assay: as above; conditions: sDSSmod = DSSmod (patient cells) - DSSmod (normal cells)
Method in brief: as §1

OE33 cells = assay: as above; conditions: OE33; sDSSmod = DSSmod (patient cells) - DSSmod (normal cells)
Method in brief: as §1

SMILES	reduction of cell survival in words (EAC42 cells [1]; EAC42, concentration of 10μM)	reduction of cell survival in words (EAC47 cells [2]; EAC47, concentration of 10μM)	treatment response in words [3]	EC50 [3]	DSS [3]	clonogenic survival (EAC42 cells [4]; EAC42, 10μM cisplatin for 24h)	clonogenic survival (EAC42 cells [4]; EAC42, 50μM cisplatin for 24h)	clonogenic survival (EAC47 cells [5]; EAC47, 10μM cisplatin for 24h)	clonogenic survival (EAC47 cells [5]; EAC47, 50μM cisplatin for 24h)	sDSSmod (Flo-1 cells)	sDSSmod (OE19 cells)	sDSSmod (EAC42 cells [1]; EAC42, sDSSmod = DSSmod (patient cells) - DSSmod (normal cells))	EC50 (EAC42 cells [1]; Homo sapiens, EAC42, assay not stated explicitly, taken as DST screen, read-out: calculated EC50)	sDSSmod (EAC47 cells [2]; EAC47, sDSSmod = DSSmod (patient cells) - DSSmod (normal cells))	EC50 (EAC47 cells [2]; Homo sapiens, EAC47, assay not stated explicitly, taken as DST screen, read-out: calculated EC50)	sDSSmod (OE33 cells)	clonogenic survival (EAC42 cells [4]; EAC42, 10nM gemcitabine for 2h, colonies after 14 days)	clonogenic survival (EAC47 cells [5]; EAC47, 10nM gemcitabine for 2h, colonies after 14 days)
N.N.[Cl][Pt][Cl] [Cisplatin]	did not result in a reduction of cell survival	did not result in a reduction of cell survival	minimal treatment effects	10 nM	0	89.19%	50.1%	95.75%	28.64%	–	–	–	–	–	–	–	–	–
Nc1ccn([C@@H]2O[C@H](CO)[C@@H](O)C2(F)F)c(=O)n1 [Gemcitabine]	–	–	–	320 nM	17.72	–	–	–	–	-5	-16.819	14.66	6.6 nM	8.407	10.7 nM	9.443	59.26%	63.28%
